Laboratory results: patent US20060088472A1, “E7 regulation of p21 cip1 through akt” (priority 2002, published 2006)
Read-outs that look alike come from different tables or passages of the source. Residues, ends and D or L forms follow the SMILES beside them. *: point of attachment. Cbz = O=C(OCc1ccccc1)*

T1: RB (retinoblastoma protein, endogenous, in lysate of RafAR-NIH3T3 control cells) (UniProt P13405 2-921)
T1 sequence: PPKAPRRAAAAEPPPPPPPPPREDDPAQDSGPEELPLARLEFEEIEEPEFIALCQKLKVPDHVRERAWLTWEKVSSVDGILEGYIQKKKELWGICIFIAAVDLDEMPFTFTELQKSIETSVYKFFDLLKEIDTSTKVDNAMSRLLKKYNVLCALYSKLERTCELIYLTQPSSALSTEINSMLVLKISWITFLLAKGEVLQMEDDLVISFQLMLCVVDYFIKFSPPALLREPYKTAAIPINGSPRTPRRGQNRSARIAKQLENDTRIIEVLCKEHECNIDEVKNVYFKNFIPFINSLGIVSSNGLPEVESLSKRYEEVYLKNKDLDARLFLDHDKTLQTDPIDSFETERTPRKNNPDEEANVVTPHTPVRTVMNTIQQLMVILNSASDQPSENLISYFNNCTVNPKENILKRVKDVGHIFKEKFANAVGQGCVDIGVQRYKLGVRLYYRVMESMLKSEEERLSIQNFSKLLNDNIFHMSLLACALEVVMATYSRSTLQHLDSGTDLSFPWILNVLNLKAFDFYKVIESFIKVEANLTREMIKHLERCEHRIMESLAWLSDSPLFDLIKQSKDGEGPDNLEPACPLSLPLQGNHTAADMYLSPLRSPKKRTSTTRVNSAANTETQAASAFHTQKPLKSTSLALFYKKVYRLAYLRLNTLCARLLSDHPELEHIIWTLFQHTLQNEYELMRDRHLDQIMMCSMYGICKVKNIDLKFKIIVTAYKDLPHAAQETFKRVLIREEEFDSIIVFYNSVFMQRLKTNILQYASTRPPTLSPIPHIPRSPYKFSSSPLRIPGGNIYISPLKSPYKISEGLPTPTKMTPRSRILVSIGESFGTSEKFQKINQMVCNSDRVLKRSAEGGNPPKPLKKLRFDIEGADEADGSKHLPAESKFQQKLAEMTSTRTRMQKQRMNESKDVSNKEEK

B1: purified recombinant GST-E7 (HPV16 E7) (other)
chain: MHGDTPTLHEYMLDLQPETTDLYCYEQLNDSSEEEDEIDGPAGQAEPDRAHYNIVTFCCKCDSTLRLCVQSTHVDIRTLEDLLMGTLGIVCPICSQKP
B2: p21^Cip1 (endogenous, in lysates of RafAR-expressing NIH3T3 cells) (other, UniProt P39689 2-159, looked up)
chain: SNPGDVRPVPHRSKVCRCLFGPVDSEQLRRDCDALMAGCLQEARERWNFDFVTETPLEGNFVWERVRSLGLPKVYLSPGSRSRDDLGGDKRPSTSSALLQGPAPEDHVALSLSCTLVSERPEDSPGGPGTSQGRKRRQTSLTDFYHSKRRLVFCKRKP
notes: also called p21^Cpi1

Columns and labels:
[1] = tested on: Akt phosphorylated on serine 473 (P-Akt); format: cell-based, murine
Experimental: The drugs and R1881 were added at 0 hr and the samples were taken at 6 hrs post-treatment.
Immunoblotting and immunoprecipitations (IP). Cell pellets were lysed in HLB lysis buffer (50 mM Tris pH 8.0, 150 mM NaCl, 1% Triton X-100, 1 mM DTT, and protease inhibitor cocktail (Sigma P8340)) for 30 minutes with vortexing. After centrifugation, protein content was quantitated via a standard BioRad Bradford assay. For immunoblotting, 30-50 μg of cell lysate was separated by sodium dodecyl sulfate-polyacrylamide gel electrophoresis (SDS-PAGE) and transferred onto nitrocellulose membrane (Schleicher and Schuell). After incubation with primary and secondary antibodies, antigen detection was performed using the enhanced chemiluminescence kit from NEN. The following antibodies were obtained from Santa Cruz: α-cyclin D1 (sc-450, Western), α-cyclin D2 (sc-593, Western), α-cyclin E (sc-481, IP and Western), α-human cyclin E (sc-198, IP and Western), α-CDK2 (sc-163 g, IP and Western), α-CDK4 (sc-260, IP and Western), α-p21^Cip1 (sc-6246, Western), α-p21^Cip1 (sc-397, IP and immunofluorescence), and a-phospho-threonine (sc-5267, Western). HPV-16 E7-specific and RB-specific antibodies were purchased from Zymed and Pharmingen, respectively. Antibodies recognizing Akt or Akt phosphorylated at serine-473 were obtained from Cell Signaling. For immunoprecipitations, cell lysates were incubated with primary antibodies for 2 hours at 4° C., and immune-complexes were collected on Protein A-agarose beads (Santa Cruz) for an additional 1 hour. The complexes were washed four times with HLB buffer and resolved by 12% SDS-PAGE for immunoblotting.
c-Raf-1 was induced by addition of the androgen analog R1881, as described herein and the cells harvested at various times thereafter.

[2] = tested on: NIH3T3 cells stably expressing the RafAR fusion protein; assay: Cell cycle analysis (BrdU incorporation / propidium iodide) in RafAR-expressing NIH3T3 cells; format: cell-based, murine; conditions: control cells (Babe), RafAR activation with 1.0 μM R1881, 30 hours
Experimental: (A) NIH3T3 cells stably expressing the RafAR fusion protein were infected with amphotrophic retroviruses expressing HPV-16 E7 (E7) or empty vector (Babe). Lysates were prepared and 100 μg of protein was resolved by 15% SDS-PAGE, transferred to nitrocellulose membrane, and probed with a monoclonal antibody directed against HPV-16 E7. (B and C) Pools of Babe- or E7-expressing cells growing in DMEM plus 10% NCS were treated with 0.02% ethanol (−) or 1.0 μM R1881 (+) for 30 hours and pulsed with BrdU for 30 minutes. Cells were trypsinized, fixed in 70% ethanol, and stained with propidium iodide (PI) for detection of total DNA content (B) and with α-BrdU-FITC for detection of DNA synthesis (C).
(A) E7-expressing cells were treated for 30 hours with 1.0 μM R1881 in the absence or presence of increasing concentrations of LY294002 (50 μM, 100 μM, 200 μM), an inhibitor of PI-3K activity. DNA synthesis was measured via BrdU incorporation. (B) E7-expressing cells were treated with 1.0 uM R1881 in the presence or absence of 100 uM LY294002, stained with p21^Cip1-specific antibody, and quantitated for nuclear p21^Cip1 localization as in FIG. 7. […] Cells were stained with α-BrdU, and GFP-positive cells were scored for BrdU incorporation via indirect immunofluorescence. Percentages of BrdU incorporation were calculated by defining the number obtained from vehicle-treated cells as 100%. […]

RafAR-expressing NIH3T3 = assay: Cell morphology after RafAR activation in NIH3T3; format: cell-based, murine; conditions: RafAR activation with 1.0 μM R1881
[3] = tested on: human foreskin keratinocytes (HFK); assay: Adriamycin DNA damage in control or E7-expressing HFK, Western blots for active Akt and p21^CIP; format: cell-based; conditions: 0.1 mM Adriamycin, 17 hours
[4] = tested on: p27^Kip1 nuclear localization; assay: p27^Kip1 localization by immunofluorescence in TGF-β treated tet-E7 Mv1Lu cells; format: cell-based, mink; conditions: 3 ng/mL TGF-β, 24 hours, absence of E7
Experimental: (A) Tet-E7 Mv1Lu cells were treated for 24 hours with 2 μg/mL doxycycline or vehicle. Cell lysates were analyzed by Western blotting with antibody specific for HPV16 E7. (B) Tet-E7 Mv1Lu cells were treated for 24 hours with 3 ng/mL TGF-β in the presence or absence of 2 μg/mL doxycycline and subsequently analyzed for p27^Kip1 expression via Western blot. (C, D) Tet-E7 Mv1Lu cells were treated as in (B), fixed with 3.7% paraformaldehyde, and stained with p27^Kip1 specific antibody as described in Materials and Methods. (C) Representative fluorescent (left panels) and phase contrast (right panels) micrographs of TGF-β treated cells in the absence (upper panels) or presence (lower panels) of doxycycline. […] The number of cells with nuclear p27^Kip1 accumulation is represented as a percentage of total cells counted. The average and deviation values shown are from two independent experiments with at least 200 cells counted per experiment.
Cell culture. NIH3T3 cells stably expressing the RafAR fusion protein have been described previously (Sewing et al., 1997). This cell line and all derivatives were cultured in DMEM without phenol red (GIBCO-BRL) supplemented with 10% charcoal-stripped newborn calf serum (NCS, Hyclone). […]
Immunofluorescence. […] Antigen staining was visualized by inverted fluorescence microscopy (Olympus CK40), and images were captured with Quality Imaging camera and software. […]

[5] = biological target: B2; assay: GST pull-down from control cell lysate, Western blot
[6] = biological target: T1, RB (retinoblastoma protein, endogenous, …); assay: as above
[7] = biological target: cyclin E (endogenous, in lysates of RafAR-NIH3T3 cells) (UniProt Q61457 1-408); assay: cyclin E immunoprecipitation, p21^Cip1 Western blot
[8] = drug added with R1881 at 0 hr, samples taken 6 hrs post-treatment

In the case of CC(C)C[C@@H](C=O)NC(=O)[C@H](CC(C)C)NC(=O)[C@H](CC(C)C)NC(=O)OCc1ccccc1 [MG132] (Cbz-Leu-Leu-Leu-aldehyde), the “down-regulation of active Akt (P-Akt) on induction of c-Raf-1” value [1, 8] is reported as “down-regulation of P-Akt was similar to control cells”.

In the case of C[C@]1(O)CC[C@H]2[C@@H]3CCC4=CC(=O)CCC4=C3C=C[C@@]21C [R1881, methyltrienolone], the DNA synthesis [2] is reported as “inhibition of DNA synthesis”, the “cells accumulating in G1” value [2] is reported as > 85% and the “time post-treatment at which down-regulation of active Akt (P-Akt) is observed” value ([1]; c-Raf-1 induced by R1881) is reported as ≤ 5 h. For the same molecule, the “time post-treatment at which total Akt protein levels decrease” value ([1]; c-Raf-1 induced by R1881) was 19 to 26 h and the cell morphology (RafAR-expressing NIH3T3) was “morphological changes including elongation and development of extended processes”.

With N#CC(=C(/N)Sc1ccccc1N)/C(C#N)=C(\N)Sc1ccccc1N [U0126] the “basal level of active Akt” value [1] was “increased” and the “down-regulation of active Akt (P-Akt) on induction of c-Raf-1” value [1] was “down-regulation is inhibited”.

For COc1cccc2c1C(=O)c1c(O)c3c(c(O)c1C2=O)C[C@@](O)(C(=O)CO)C[C@@H]3O[C@H]1C[C@H](N)[C@H](O)[C@H](C)O1 [adriamycin], the “active Akt levels after adriamycin treatment” value [3] was “maintained only in E7-expressing cells” and the “p21^CIP levels after adriamycin treatment” value [3] was “increased”.

C[C@@H]1C[C@@H]([C@H](O)CC2CC(=O)NC(=O)C2)C(=O)[C@@H](C)C1 [cyclohexamide] was tested, and the “down-regulation of active Akt (P-Akt) on induction of c-Raf-1” value [1, 8] was “inhibited the down-regulation of Akt”.

With TGF-β the “nuclear accumulation of p27^Kip1” value [4] was “robust nuclear accumulation”.

B1: no binding [5]; binds [6].

B2: binds [7].
